The values below come from US9936701B2, “Herbicidal compounds” (Syngenta Participations AG, priority 2013, dated 2018).

In assay [1] the test system is a variety of test species. The assay is described as follows: Pre-emergence herbicidal activity (glasshouse, sprayed one day after sowing, evaluated after 13 days). The following applies: application pre-emergence, rate 1000 g/Ha, scale 0-5. Also on record: key: 5=total damage to plant; 0=no damage to plant. The class given is in vivo. The gist of the method:
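Damage was rated 13 days after treatment on a 0–5 scale (0 = no damage, 5 = total damage). Pots of seeds in standard soil were sprayed one day after sowing with an aqueous solution from an acetone/water (50:50), 0.5% Tween 20 formulation and kept at 24/16 °C day/night.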

Assay [2] has as its system a variety of test species. The assay can be described thus: Post-emergence herbicidal activity (glasshouse, sprayed after 8 days cultivation, evaluated after 13 days). Format: in vivo. The following applies: rate 1000 g/Ha, scale 0-5. Details: key: 5=total damage to plant; 0=no damage to plant. The gist of the method:
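Seeds were sown in standard soil and cultivated for 8 days under controlled glasshouse conditions. Seedlings were then sprayed with an aqueous solution of the formulated compound containing 0.5% Tween 20. Injury was rated after a further 13 days, where 5 indicated total damage.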

As for `COc1ccc(OC(=O)OC2C(C)=C(Cl)C(=O)N2c2cc(C(C)(C)C)on2)cc1` (stereo not drawn) [A86], in assay [1], the “Pre-emergence herbicidal damage score, ABUTH” value was 3; the “Pre-emergence herbicidal damage score, ALOMY” value was 3; the “Pre-emergence herbicidal damage score, AMARE” value worked out at 5; the “Pre-emergence herbicidal damage score, ECHCG” value was 2. In assay [1], the “Pre-emergence herbicidal damage score, SETFA” value amounted to 2 and the “Pre-emergence herbicidal damage score, ZEAMX” value was 1. For the same molecule, in assay [2], the “ABUTH (Abutilon theophrasti) damage score, application post-emergence” value (“ABUTH … application post-emergence” below) was 2; the “ALOMY (Alopecurus myosuroides) damage score, application post-emergence” value (“ALOMY … application post-emergence” below) amounted to 3; the “AMARE (Amaranthus retroflexus) damage score, application post-emergence” value (“AMARE … application post-emergence” below) is 5; the “ECHCG (Echinochloa crus-galli) damage score, application post-emergence” value (“ECHCG … application post-emergence” below) stood at 2. Moreover, in assay [2], the “SETFA (Setaria faberi) damage score, application post-emergence” value (“SETFA (Setaria faberi) damage score” below) came to 3 and the “ZEAMX (Zea mays) damage score, application post-emergence” value (“ZEAMX (Zea mays) damage score” for short) is 0.
For the molecule `COc1ccccc1OC(=O)OC1C(C)=C(Cl)C(=O)N1c1cc(C(C)(C)C)on1` (stereo not drawn) [A87], in assay [1], the “Pre-emergence herbicidal damage score, ABUTH” value worked out at 2; the “Pre-emergence herbicidal damage score, ALOMY” value was found to be 2; the “Pre-emergence herbicidal damage score, AMARE” value is reported as 3; the “Pre-emergence herbicidal damage score, ECHCG” value worked out at 1. In assay [1], the “Pre-emergence herbicidal damage score, SETFA” value is listed as 1 and the “Pre-emergence herbicidal damage score, ZEAMX” value amounted to 0. Moreover, in assay [2], the “ABUTH … application post-emergence” value amounted to 2; the “ALOMY … application post-emergence” value is on record as 2; the “AMARE … application post-emergence” value was 4; the “ECHCG … application post-emergence” value is 3. Moreover, in assay [2], the “SETFA (Setaria faberi) damage score” value was determined as 2 and the “ZEAMX (Zea mays) damage score” value amounted to 0.
In the case of `CC1=C(Cl)C(=O)N(c2cc(C(C)(C)C)on2)C1OC(=O)OCC(C)(C)C` (stereo not drawn) [A88], in assay [1], the “Pre-emergence herbicidal damage score, ABUTH” value is 5; the “Pre-emergence herbicidal damage score, ALOMY” value was found to be 4; the “Pre-emergence herbicidal damage score, AMARE” value worked out at 5; the “Pre-emergence herbicidal damage score, ECHCG” value is given as 5. Further, in assay [1], the “Pre-emergence herbicidal damage score, SETFA” value was 5 and the “Pre-emergence herbicidal damage score, ZEAMX” value amounted to 3. Besides, in assay [2], the “ABUTH … application post-emergence” value amounted to 5; the “ALOMY … application post-emergence” value turned out to be 5; the “AMARE … application post-emergence” value amounted to 5; the “ECHCG … application post-emergence” value is 5. In assay [2], the “SETFA (Setaria faberi) damage score” value came to 5 and the “ZEAMX (Zea mays) damage score” value is 5.
`CC1=C(Cl)C(=O)N(c2cc(C(C)(C)C)on2)C1OC(=O)c1ccc(C(F)(F)F)nc1` (stereo not drawn) [A90]: in assay [1], the “Pre-emergence herbicidal damage score, ABUTH” value is reported as 4; the “Pre-emergence herbicidal damage score, ALOMY” value came out at 2; the “Pre-emergence herbicidal damage score, AMARE” value is recorded as 5; the “Pre-emergence herbicidal damage score, ECHCG” value is reported as 1. In assay [1], the “Pre-emergence herbicidal damage score, SETFA” value is given as 2 and the “Pre-emergence herbicidal damage score, ZEAMX” value is on record as 1. For the same molecule, in assay [2], the “ABUTH … application post-emergence” value was 4; the “ALOMY … application post-emergence” value is 4; the “AMARE … application post-emergence” value is listed as 5; the “ECHCG … application post-emergence” value is listed as 2. In addition, in assay [2], the “SETFA (Setaria faberi) damage score” value was 3 and the “ZEAMX (Zea mays) damage score” value turned out to be 1.
Take `CC1=C(Cl)C(=O)N(c2cc(C(C)(C)C)on2)C1OC(=O)c1sccc1Cl` (stereo not drawn) [A91]: in assay [1], the “Pre-emergence herbicidal damage score, ABUTH” value turned out to be 1; the “Pre-emergence herbicidal damage score, ALOMY” value came to 2; the “Pre-emergence herbicidal damage score, AMARE” value stood at 4; the “Pre-emergence herbicidal damage score, ECHCG” value was 0. Moreover, in assay [1], the “Pre-emergence herbicidal damage score, SETFA” value was found to be 0 and the “Pre-emergence herbicidal damage score, ZEAMX” value was found to be 0. In assay [2], the “ABUTH … application post-emergence” value is 2; the “ALOMY … application post-emergence” value was determined as 2; the “AMARE … application post-emergence” value came to 5; the “ECHCG … application post-emergence” value came out at 1. Moreover, in assay [2], the “SETFA (Setaria faberi) damage score” value is 1 and the “ZEAMX (Zea mays) damage score” value is 0.
Regarding `CC1=C(Cl)C(=O)N(c2cc(C(C)(C)C)on2)C1OC(=O)c1ccno1` (stereo not drawn) [A92], in assay [1], the “Pre-emergence herbicidal damage score, ABUTH” value was 5; the “Pre-emergence herbicidal damage score, ALOMY” value was determined as 4; the “Pre-emergence herbicidal damage score, AMARE” value worked out at 5; the “Pre-emergence herbicidal damage score, ECHCG” value was determined as 5. Moreover, in assay [1], the “Pre-emergence herbicidal damage score, SETFA” value worked out at 4 and the “Pre-emergence herbicidal damage score, ZEAMX” value is given as 3. Also, in assay [2], the “ABUTH … application post-emergence” value is reported as 5; the “ALOMY … application post-emergence” value came out at 5; the “AMARE … application post-emergence” value was 5; the “ECHCG … application post-emergence” value is 5. In addition, in assay [2], the “SETFA (Setaria faberi) damage score” value is on record as 5 and the “ZEAMX (Zea mays) damage score” value amounted to 1.
Turning to `CCC(=O)OC1C(C)=C(Cl)C(=O)N1c1cc(C(C)(C)C)on1` (stereo not drawn) [A93], in assay [1], the “Pre-emergence herbicidal damage score, ABUTH” value amounted to 5; the “Pre-emergence herbicidal damage score, ALOMY” value came out at 4; the “Pre-emergence herbicidal damage score, AMARE” value amounted to 5; the “Pre-emergence herbicidal damage score, ECHCG” value came out at 4. Also, in assay [1], the “Pre-emergence herbicidal damage score, SETFA” value is 5 and the “Pre-emergence herbicidal damage score, ZEAMX” value is 3. In assay [2], the “ABUTH … application post-emergence” value is reported as 5; the “ALOMY … application post-emergence” value is on record as 5; the “AMARE … application post-emergence” value amounted to 5; the “ECHCG … application post-emergence” value is listed as 5. In assay [2], the “SETFA (Setaria faberi) damage score” value is 5 and the “ZEAMX (Zea mays) damage score” value came out at 4.
Turning to `CCOC(=O)OC1C(C)=C(Cl)C(=O)N1c1noc(C(C)(C)C)c1C#N` (stereo not drawn) [A96], in assay [1], the “Pre-emergence herbicidal damage score, ABUTH” value turned out to be 5; the “Pre-emergence herbicidal damage score, ALOMY” value was found to be 4; the “Pre-emergence herbicidal damage score, AMARE” value is recorded as 5; the “Pre-emergence herbicidal damage score, ECHCG” value worked out at 5. Also, in assay [1], the “Pre-emergence herbicidal damage score, SETFA” value came out at 5 and the “Pre-emergence herbicidal damage score, ZEAMX” value came to 3. In assay [2], the “ABUTH … application post-emergence” value came to 5; the “ALOMY … application post-emergence” value worked out at 5; the “AMARE … application post-emergence” value is 5; the “ECHCG … application post-emergence” value is given as 5. Also, in assay [2], the “SETFA (Setaria faberi) damage score” value is given as 5 and the “ZEAMX (Zea mays) damage score” value is 5.
With `CC1=C(Cl)C(=O)N(c2noc(C(C)(C)C)c2C#N)C1Cl` (stereo not drawn) [A97, 5-tert-butyl-3-(2A-dichloro-3-methyl-5-oxo-2H-pyrrol-1-yl)isoxazole-4-carbonitrile], in assay [1], the “Pre-emergence herbicidal damage score, ABUTH” value came to 5; the “Pre-emergence herbicidal damage score, ALOMY” value was 4; the “Pre-emergence herbicidal damage score, AMARE” value came out at 5; the “Pre-emergence herbicidal damage score, ECHCG” value was found to be 4. In addition, in assay [1], the “Pre-emergence herbicidal damage score, SETFA” value was 5 and the “Pre-emergence herbicidal damage score, ZEAMX” value was 3. Moreover, in assay [2], the “ABUTH … application post-emergence” value stood at 5; the “ALOMY … application post-emergence” value is on record as 5; the “AMARE … application post-emergence” value came out at 5; the “ECHCG … application post-emergence” value was 5. In assay [2], the “SETFA (Setaria faberi) damage score” value was 5 and the “ZEAMX (Zea mays) damage score” value came out at 3.
